The values below come from patent publication US20200239530A1, “COMPOUNDS AND METHODS OF MODULATING PROTEIN DEGRADATION” (Vividion Therapeutics, Inc., priority 2017, published 2020).

Read-outs that look alike come from different tables or passages of the source.

Holding throughout (test): Competitive cysteine profiling, probe competition (Table 2B)
Format in all cases: binding

Assay [1] has as its target T1, P60006 (Homo sapiens, UniProt P60006).
T1 construct: Cells were resuspended in cold PBS on ice and sonicated with a probe sonicator to achieve lysis; endogenous in cells
From the text: (§1) The following 96-well sample prep protocol was used for sample preparation.

For assay [2], the target named is T2, Q9NYG5 (Homo sapiens, UniProt Q9NYG5).
T2 construct: Cells were resuspended in cold PBS on ice and sonicated with a probe sonicator to achieve lysis; endogenous in cells
Source text: as §1

Assay [3] concerns the target T3, O95376 (Homo sapiens, UniProt O95376).
T3 construct: Cells were resuspended in cold PBS on ice and sonicated with a probe sonicator to achieve lysis; endogenous in cells
T3 sequence (O95376 1-493): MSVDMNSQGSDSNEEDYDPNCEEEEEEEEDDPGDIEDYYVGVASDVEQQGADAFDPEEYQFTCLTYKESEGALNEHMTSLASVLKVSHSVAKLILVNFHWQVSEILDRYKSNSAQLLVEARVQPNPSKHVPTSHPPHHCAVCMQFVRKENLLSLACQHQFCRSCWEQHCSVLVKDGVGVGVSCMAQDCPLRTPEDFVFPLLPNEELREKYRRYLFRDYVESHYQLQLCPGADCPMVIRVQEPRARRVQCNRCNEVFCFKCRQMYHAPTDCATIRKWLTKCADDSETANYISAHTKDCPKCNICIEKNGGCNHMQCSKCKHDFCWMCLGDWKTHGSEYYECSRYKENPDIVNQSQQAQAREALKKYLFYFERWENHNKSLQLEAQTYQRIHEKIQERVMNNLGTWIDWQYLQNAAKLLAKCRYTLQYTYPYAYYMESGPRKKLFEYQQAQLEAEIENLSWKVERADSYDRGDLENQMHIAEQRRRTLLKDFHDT
The conditions noted are these: 500 uM.
Source text: as §1

In assay [4] the target is T4, Q96P09 (Homo sapiens, UniProt Q96P09).
T4 construct: 200 μL of lysate containing 5 mg/ml proteome was treated with 2 μL of 100× compound stock; endogenous in cells
T4 sequence (Q96P09 1-236): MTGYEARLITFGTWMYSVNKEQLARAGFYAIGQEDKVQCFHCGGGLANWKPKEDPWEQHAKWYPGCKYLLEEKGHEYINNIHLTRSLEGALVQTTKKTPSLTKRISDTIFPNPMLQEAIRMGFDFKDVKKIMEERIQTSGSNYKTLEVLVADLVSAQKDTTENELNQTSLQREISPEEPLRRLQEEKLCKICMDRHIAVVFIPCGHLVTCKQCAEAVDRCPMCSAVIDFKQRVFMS
Source text: as §1

In assay [5] the target is T5, Q9UKV5 (Homo sapiens, UniProt Q9UKV5).
T5 construct: Cells were resuspended in cold PBS on ice and sonicated with a probe sonicator to achieve lysis; endogenous in cells
Source text: as §1

For assay [6], the target named is T6, Q9UM13 (Homo sapiens, UniProt Q9UM13).
T6 construct: Cells were resuspended in cold PBS on ice and sonicated with a probe sonicator to achieve lysis; endogenous in cells
Source text: as §1

For assay [7], the target named is T7, Q9H765 (Homo sapiens, UniProt Q9H765).
T7 construct: 200 μL of lysate containing 5 mg/ml proteome was treated with 2 μL of 100× compound stock; endogenous in cells
T7 sequence (Q9H765 1-288): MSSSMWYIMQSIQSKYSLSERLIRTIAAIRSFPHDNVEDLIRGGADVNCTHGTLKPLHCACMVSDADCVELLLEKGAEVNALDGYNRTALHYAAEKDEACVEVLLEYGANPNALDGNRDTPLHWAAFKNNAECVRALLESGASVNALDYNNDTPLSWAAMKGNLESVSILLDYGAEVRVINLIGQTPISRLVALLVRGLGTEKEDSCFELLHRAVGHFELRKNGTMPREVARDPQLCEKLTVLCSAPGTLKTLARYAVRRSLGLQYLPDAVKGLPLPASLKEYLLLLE
Source text: as §1

Assay [8] concerns the target T8, Q9UJX5 (Homo sapiens, UniProt Q9UJX5).
T8 construct: Cells were resuspended in cold PBS on ice and sonicated with a probe sonicator to achieve lysis; endogenous in cells
Source text: as §1

The target in assay [9] is T9, Q5XKL5 (Homo sapiens, UniProt Q5XKL5).
T9 construct: 200 μL of lysate containing 5 mg/ml proteome was treated with 2 μL of 100× compound stock; endogenous in cells
Source text: as §1

Assay [10] has as its target T10, Q96DX5 (Homo sapiens, UniProt Q96DX5).
T10 construct: 200 μL of lysate containing 5 mg/ml proteome was treated with 2 μL of 100× compound stock; endogenous in cells
T10 sequence (Q96DX5 1-294): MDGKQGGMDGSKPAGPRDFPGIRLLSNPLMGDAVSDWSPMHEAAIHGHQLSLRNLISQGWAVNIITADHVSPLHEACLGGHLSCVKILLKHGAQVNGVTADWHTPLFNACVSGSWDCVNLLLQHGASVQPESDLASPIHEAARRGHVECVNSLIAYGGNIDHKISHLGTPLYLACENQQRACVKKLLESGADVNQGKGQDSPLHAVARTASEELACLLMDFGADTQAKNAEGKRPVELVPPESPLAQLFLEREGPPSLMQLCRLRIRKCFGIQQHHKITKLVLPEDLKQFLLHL
Source text: as §1

Where [11] appears, read: 100 uM, read-out: KB02_100 uM_percent_inhibition.
[12] abbreviates: 500 uM, read-out: KB02_500 uM_percent_inhibition.
Where [13] appears, read: read-out: KB02_100 uM_percent_inhibition.
Setting [14] is: 100 uM, read-out: KB05_100 uM_percent_inhibition.
[15] abbreviates: 500 uM, read-out: KB05_500 uM_percent_inhibition.
The mark [16] stands for this setting: read-out: KB05_100 uM_percent_inhibition.

T9 sequence (Q5XKL5 whole entry): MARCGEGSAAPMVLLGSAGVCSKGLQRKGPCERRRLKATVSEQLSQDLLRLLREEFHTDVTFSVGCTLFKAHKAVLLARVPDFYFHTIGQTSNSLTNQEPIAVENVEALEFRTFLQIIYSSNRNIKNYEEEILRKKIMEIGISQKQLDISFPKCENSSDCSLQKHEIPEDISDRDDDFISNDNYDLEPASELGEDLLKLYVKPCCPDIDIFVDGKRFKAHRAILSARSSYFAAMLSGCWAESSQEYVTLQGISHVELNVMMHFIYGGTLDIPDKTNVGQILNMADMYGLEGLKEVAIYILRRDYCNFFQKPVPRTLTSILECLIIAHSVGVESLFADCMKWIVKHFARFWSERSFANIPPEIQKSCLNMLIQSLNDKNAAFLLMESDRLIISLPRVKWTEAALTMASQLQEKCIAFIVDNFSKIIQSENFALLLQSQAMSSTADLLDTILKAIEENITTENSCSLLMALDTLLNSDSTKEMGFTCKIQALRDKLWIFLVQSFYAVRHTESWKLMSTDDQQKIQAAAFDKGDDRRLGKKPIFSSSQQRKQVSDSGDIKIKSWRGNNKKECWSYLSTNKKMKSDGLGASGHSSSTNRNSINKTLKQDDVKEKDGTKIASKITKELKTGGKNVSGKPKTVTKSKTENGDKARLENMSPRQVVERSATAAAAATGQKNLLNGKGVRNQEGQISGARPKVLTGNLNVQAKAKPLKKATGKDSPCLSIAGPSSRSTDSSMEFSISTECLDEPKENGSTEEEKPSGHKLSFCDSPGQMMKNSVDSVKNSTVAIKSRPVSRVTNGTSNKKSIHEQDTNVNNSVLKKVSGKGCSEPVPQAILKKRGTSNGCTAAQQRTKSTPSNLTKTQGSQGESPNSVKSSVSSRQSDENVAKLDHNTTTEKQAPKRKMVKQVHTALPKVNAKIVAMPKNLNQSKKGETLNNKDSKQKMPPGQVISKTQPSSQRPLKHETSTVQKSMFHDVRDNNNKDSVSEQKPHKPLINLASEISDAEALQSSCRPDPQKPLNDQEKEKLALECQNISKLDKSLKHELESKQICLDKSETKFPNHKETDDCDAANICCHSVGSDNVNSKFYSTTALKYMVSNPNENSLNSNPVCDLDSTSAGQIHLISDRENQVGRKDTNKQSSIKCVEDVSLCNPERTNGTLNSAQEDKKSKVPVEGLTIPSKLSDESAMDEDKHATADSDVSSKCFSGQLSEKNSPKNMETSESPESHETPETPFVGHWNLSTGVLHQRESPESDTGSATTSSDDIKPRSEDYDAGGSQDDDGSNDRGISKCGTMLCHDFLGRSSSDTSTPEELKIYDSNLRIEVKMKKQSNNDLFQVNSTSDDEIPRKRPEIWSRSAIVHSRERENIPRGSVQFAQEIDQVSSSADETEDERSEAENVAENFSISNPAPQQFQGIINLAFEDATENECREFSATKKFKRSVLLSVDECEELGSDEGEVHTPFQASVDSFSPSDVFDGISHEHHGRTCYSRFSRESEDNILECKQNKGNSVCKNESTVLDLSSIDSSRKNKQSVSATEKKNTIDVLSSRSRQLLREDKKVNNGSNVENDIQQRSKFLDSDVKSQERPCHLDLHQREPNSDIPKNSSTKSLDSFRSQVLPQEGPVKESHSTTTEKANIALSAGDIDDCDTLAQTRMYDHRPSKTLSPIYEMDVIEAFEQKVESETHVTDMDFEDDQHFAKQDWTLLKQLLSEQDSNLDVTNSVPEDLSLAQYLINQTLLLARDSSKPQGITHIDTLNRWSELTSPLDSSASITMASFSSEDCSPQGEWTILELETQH
T5 sequence (Q9UKV5 whole entry): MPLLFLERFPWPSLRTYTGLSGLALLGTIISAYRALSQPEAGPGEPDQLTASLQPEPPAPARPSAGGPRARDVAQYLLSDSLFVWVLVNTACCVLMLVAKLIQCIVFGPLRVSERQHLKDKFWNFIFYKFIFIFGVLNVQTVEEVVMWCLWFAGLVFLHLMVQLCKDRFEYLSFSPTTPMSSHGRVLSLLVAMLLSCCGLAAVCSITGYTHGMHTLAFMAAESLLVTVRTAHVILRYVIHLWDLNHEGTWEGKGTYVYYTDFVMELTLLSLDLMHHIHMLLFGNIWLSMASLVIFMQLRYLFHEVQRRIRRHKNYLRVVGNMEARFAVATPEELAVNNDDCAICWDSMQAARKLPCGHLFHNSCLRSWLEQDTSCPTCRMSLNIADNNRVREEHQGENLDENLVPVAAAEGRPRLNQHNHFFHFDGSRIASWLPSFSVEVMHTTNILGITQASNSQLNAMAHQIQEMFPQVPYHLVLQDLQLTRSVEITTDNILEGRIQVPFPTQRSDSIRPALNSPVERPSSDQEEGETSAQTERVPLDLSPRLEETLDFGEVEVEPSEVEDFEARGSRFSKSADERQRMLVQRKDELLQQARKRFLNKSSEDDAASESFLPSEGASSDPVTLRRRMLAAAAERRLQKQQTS
T6 sequence (Q9UM13 whole entry): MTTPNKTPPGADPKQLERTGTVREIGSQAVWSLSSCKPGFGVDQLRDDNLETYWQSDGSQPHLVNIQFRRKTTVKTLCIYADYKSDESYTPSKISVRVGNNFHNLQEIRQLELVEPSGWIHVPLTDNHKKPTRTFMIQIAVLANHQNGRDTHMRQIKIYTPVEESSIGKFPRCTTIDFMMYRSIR
T2 sequence (Q9NYG5 whole entry): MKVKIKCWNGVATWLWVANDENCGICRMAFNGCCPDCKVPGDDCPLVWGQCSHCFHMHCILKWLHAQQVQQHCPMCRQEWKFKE
T8 sequence (Q9UJX5 whole entry): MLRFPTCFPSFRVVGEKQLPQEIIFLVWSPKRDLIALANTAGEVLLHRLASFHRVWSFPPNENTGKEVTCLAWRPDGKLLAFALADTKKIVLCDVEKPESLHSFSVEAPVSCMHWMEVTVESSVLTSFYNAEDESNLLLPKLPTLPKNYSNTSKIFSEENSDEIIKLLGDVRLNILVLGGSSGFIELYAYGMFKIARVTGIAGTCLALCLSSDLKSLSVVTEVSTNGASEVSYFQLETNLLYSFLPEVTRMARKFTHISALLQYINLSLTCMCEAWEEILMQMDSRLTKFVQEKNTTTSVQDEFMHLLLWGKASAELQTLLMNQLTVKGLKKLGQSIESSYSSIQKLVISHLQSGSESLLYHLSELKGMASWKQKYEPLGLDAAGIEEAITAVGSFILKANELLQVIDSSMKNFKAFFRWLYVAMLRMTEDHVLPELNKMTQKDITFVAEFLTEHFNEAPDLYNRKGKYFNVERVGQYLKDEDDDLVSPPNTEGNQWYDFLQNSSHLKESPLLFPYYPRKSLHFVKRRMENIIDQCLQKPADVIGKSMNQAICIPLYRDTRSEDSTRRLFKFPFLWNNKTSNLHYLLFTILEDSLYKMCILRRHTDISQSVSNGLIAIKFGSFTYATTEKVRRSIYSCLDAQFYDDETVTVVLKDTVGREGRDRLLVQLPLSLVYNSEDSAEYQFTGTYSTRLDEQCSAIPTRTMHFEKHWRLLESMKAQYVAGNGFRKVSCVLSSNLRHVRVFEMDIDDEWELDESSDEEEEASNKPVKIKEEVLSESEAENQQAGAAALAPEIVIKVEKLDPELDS

For `COc1ccc2c(c1)CCCN2C(=O)CCl` [KB02], the inhibition at 100 µM in assay [1] (setting [11]) is 44%; in assay [2] (setting [13]), 41%; in [5] (setting [13]), 4%; in assay [6] (setting [11]), 1%; in assay [7] (setting [11]), 19%; in assay [9] (setting [11]) it was 27%. In addition, the inhibition at 100 µM in [10] (setting [13]) worked out at 30%. The inhibition at 500 µM in assay [1] (setting [12]) was found to be 93%; in assay [4] (read-out: KB02_500 uM_percent_inhibition), 38%; in assay [5] (setting [12]), 19%; in [6] (setting [12]), 53%; in assay [7] (setting [12]), 54%; in assay [8] (setting [12]), 7%. Further, the “KB02_500 uM_percent_inhibition” value in assay [3] came out at 89%.

In the case of `C=CC(=O)N(c1ccccc1)c1ccc(Br)cc1` [KB05], the inhibition at 100 µM was determined as 24% in [1] (setting [14]); 27% in [2] (setting [16]); 5% in assay [5] (setting [16]); 18% in [6] (setting [14]); 6% in assay [8] (setting [14]); 12% in assay [10] (setting [16]). The inhibition at 500 µM in assay [1] (setting [15]) amounted to 74%; in assay [4] (read-out: KB05_500 uM_percent_inhibition), 45%; in assay [5] (setting [15]), 18%; in assay [6] (setting [15]), 62%; in assay [7] (setting [15]), 37%; in assay [8] (setting [15]) it was 20%. Also, the inhibition at 500 µM in [9] (setting [15]) was 37%. In addition, the “KB05_500 uM_percent_inhibition” value in assay [3] is 79%; in assay [9] (500 uM) it was 55%.

As for `O=C(CCl)Nc1cc(C(F)(F)F)cc(C(F)(F)F)c1` [KBO3], the “KB03_100 uM_percent_inhibition” value in assay [1] (100 uM) is 49%; in assay [2] (100 uM) it was 51%; in [6] (100 uM), 11%; in assay [10] (100 uM), 33%. The “KB03_500 uM_percent_inhibition” value in assay [1] (500 uM) came out at 65%; in [3], 100%; in [4] (500 uM), 21%; in assay [5] (500 uM), 48%; in [6] (500 uM) it was 37%; in [7] (500 uM) it was 40%. The “KB03_500 uM_percent_inhibition” value in assay [8] (500 uM) came out at 29%; in [9] (500 uM), 18%.
